Test results reported in patent US11827665B2, “Process for the manufacture of (2S,3S,4S,5R,6S)-3,4,5-trihydroxy-6-(((4AR,10AR)-7-hydroxy-1-propyl-1,2,3,4,4A,5,10,10A-octahydrobenzo[g]quinolin-6-yl)oxy)tetrahydro-2H-pyran-2-carboxylic acid” (H. Lundbeck A/S, priority 2019, dated 2023).

Experiments:
Parkinson's disease = conditions: PD patients, intravenous (IV); cited from earlier work
[1] = man, oral dosing; cited from earlier work
rat locomotor activity = assay: Rat locomotor activity (hyperactivity) assay, open field, with PK/PD; assay type: in vivo, male CD rats; conditions: for Relationship between plasma concentration and hyperactivity: (Id) 100 μg/kg p.o. (plasma compound (I)), apomorphine 3 mg/kg s.c. (plasma apomorphine)
Description: Animals were dosed at t=60 minutes after a 60-minutes habituation period in test chambers, and activity was monitored for 350 minutes thereafter.
In total, 206 male CD rats (Charles River, Germany) weighing 200-250 grams (165-190 grams upon arrival) were used in the study. Animals were housed at a standard temperature (22±1° C.) and in a light-controlled environment (lights on from 7 am to […]) with ad libitum access to food and water. The experiment described below was performed in accordance with the standard operating procedures of Charles River Discovery Research Services Finland Ltd. and in accordance with the national Animal Experiment Board of Finland (Eläinkoelautakunta, ELLA) authority on animal testing.
The test device is a square Plexiglass-arena (measuring 40×40×40 cm), in which the movement paths of the rats are recorded by an activity monitor (Med. Associates Inc.). Before the test period is initiated, rats are habituated to their test cage for 60 minutes. Upon completion of habituation, animals were treated with either compound or vehicle and placed back into the open field apparatus. The main test parameter measured is ambulatory distance (recorded in 5-minute segments). Overall time of measurement after receiving initial treatment was 360 minutes. Total follow up period in the study was 420 min, including 60 min of habituation.

human hepatocytes [2] = assay: Incubation with human hepatocytes; assay type: in vitro ADME
Description: (§1) The cell concentration at incubation was 1×10^6 viable cells/mL. The incubations were performed in glass tubes at 37° C. with a total incubation volume of 3.5 mL and with duplicate incubations for each test item. The 3.5 mL of hepatocyte suspension was equilibrated for 10 minutes in a water bath set to 37° C. where after the incubations were initiated by adding 3.5 μL of a stock solution of the test item in DMSO (Dimethyl sulfoxide) and gently inverting the tubes. The final solvent concentration in the incubations was 0.1% DMSO. Samples of 600 μL were withdrawn from the incubations at the pre-determined time points of 0.25, 5, 15, 30 and 60 minutes after ensuring homogeneity of hepatocyte suspensions. The withdrawn volume was added to 1 mL Nunc cryotubes on wet ice containing 60 μL of ice-cold ascorbic acid (100 mg/mL) and 30 μL of ice cold 100 mM saccharic acid 1.4-lactone in 0.5 M citric acid. The tubes were mixed and 35 μL of a solution of ice cold 20% formic acid was added. The tubes were mixed thoroughly and stored at −80° C. awaiting analysis.

[3] = tested on: Parkinson's Disease animal models; conditions: WO 2010/097092; cited from earlier work
rat hepatocytes [4] = assay: Incubation with rat hepatocytes; assay type: in vitro ADME
Description: as §1

human 5-HT2B receptor [5] = target: T1, human 5-HT2B receptor (Homo sapiens, UniProt P41595); assay: 5-HT2B agonist activity assay (IP1 production, HTRF); assay type: cell-based; conditions: for 5-HT2B receptor agonism (in words): example 6 and Table 2
T1 construct: host or cells: CHO
T1 sequence (P41595 whole entry): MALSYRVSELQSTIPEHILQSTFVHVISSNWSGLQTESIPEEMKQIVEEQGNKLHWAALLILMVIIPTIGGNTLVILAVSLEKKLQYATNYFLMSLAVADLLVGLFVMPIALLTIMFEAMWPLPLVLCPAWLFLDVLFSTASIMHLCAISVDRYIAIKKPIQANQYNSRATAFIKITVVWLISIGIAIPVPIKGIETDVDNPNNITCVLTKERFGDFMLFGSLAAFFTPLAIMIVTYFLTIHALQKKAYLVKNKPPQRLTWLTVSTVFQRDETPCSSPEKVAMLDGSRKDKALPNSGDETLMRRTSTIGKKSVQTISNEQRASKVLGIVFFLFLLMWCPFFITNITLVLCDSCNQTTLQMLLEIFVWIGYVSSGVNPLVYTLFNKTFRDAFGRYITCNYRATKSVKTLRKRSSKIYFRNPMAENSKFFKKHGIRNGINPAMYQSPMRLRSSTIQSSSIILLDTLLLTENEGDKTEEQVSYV
Description: Evaluation of the agonist activity of compounds (I), (Ia), (Ib), (Ic) and (Id) at the human 5-HT2B receptor was performed by Eurofins/Cerep (France) measuring the compound effects on inositol monophosphate (IP1) production using the HTRF detection method. Briefly, the human 5-HT2B receptor was expressed in transfected CHO cells. The cells were suspended in a buffer containing 10 mM Hepes/NaOH (pH 7.4), 4.2 mM KCl, 146 mM NaCl, 1 mM CaCl2, 0.5 mM MgCl2, 5.5 mM glucose and 50 mM LiCl, then distributed in microplates at a density of 4100 cells/well and incubated for 30 minutes at 37° C. in the presence of buffer (basal control), test compound or reference agonist. For stimulated control measurement, separate assay wells contained 1 μM 5-HT. Following incubation, the cells were lysed and the fluorescence acceptor (fluorophen D2-labeled IP1) and fluorescence donor (anti-IP1 antibody labeled with europium cryptate) were added. After 60 minutes at room temperature, the fluorescence transfer was measured at lambda (Ex) 337 nm and lambda (Em) 620 and 665 nm using a microplate reader (Rubystar, BMG). The IP1 concentration was determined by dividing the signal measured at 665 nm by that measured at 620 nm (ratio). The results were expressed as a percent of the control response to 1 μM 5-HT. The standard reference agonist was 5-HT, which was tested in each experiment at several concentrations to generate a concentration-response curve from which its EC50 value is calculated as described above for dopamine functional assays.

[6] = PK experiments in rats: plasma compound (I) after oral dosing of prodrugs; assay type: in vivo, Han Wistar rats; conditions: Wistar rats, doses equal to 287 μg/kg of compound (I)
Description: Plasma was placed on water-ice following collection. Final storage at approximately −70° C.
Mobile phase B: Acetonitrile. […] Flow rate 0.5 mL/min.
The rats had unrestricted access to the diet.
Mobile phase B: Acetonitrile+0.2% formic acid. […] Flow rate 0.3 mL/min.
Dosing and blood sampling for compound (Ic): Han Wistar rats were supplied by Envigo, UK. […] The rats received a standard laboratory diet Teklad 2014C. The rats had unrestricted access to the diet. […] Rats were given 494 μg/kg (Ic).

rat hepatocytes [7] = conditions: WO 2010/097092; cited from earlier work
human hepatocytes [8] = conditions: WO 2010/097092; cited from earlier work
[9] = Conversion in fresh rat blood; assay type: in vitro ADME; conditions: fresh blood 37° C., 1 μg/mL, 0-60 minutes
Description: (§2) Conversion of (Id) in human blood (average of 3 donors) and rat blood (average of 45 donors) to (I) was shown in fresh blood at 37° C. spiked with 1 μg/mL of (Id). (I) was measured at 0, 5, 15, 30 and 60 minutes in isolated plasma. Analysis method and Instrumentation as described in Example 7 below in the section “Instrumentation used for analysis of compound (I) from dosing of compounds (Ic) and (Id).”

human 5-HT2B receptor [10] = target: T1, human 5-HT2B receptor; assay: 5-HT2B radioligand binding assay; conditions: [125I](±)DOI, CHO cell membranes, read-out: 5-HT2B binding affinity (% inhibition of control, specific binding)
Description: Membrane homogenates prepared from CHO cells expressing the human 5HT2B receptor were incubated for 60 minutes at room temperature with 0.2 nM [1251](±)DOI (1-(4-iodo-2, 5-dimethoxyphenyl)propan-2-amine) in the absence or presence of the test compound in a buffer containing 50 mM Tris-HCl (pH 7.4), 5 mM MgCl2, 10 μM pargyline and 0.1% ascorbic acid. Nonspecific binding is determined in the presence of 1 μM (±)DOI. Following incubation, the samples were filtered rapidly under vacuum through glass fiber filters (GF/B, Packard) presoaked with 0.3% polyethyleneimine (PEI) and rinsed several times with ice-cold 50 mM Tris-HCl using a 96-sample cell harvester (Unifilter, Packard). The filters were dried and counted for radioactivity in a scintillation counter (Topcount, Packard) using a scintillation cocktail (Microscint 0, Packard). The results are expressed as a percent inhibition of the control radioligand specific binding. The standard reference compound was (±)DOI, which was tested in each experiment at several concentrations to obtain a competition curve from which its IC50 is calculated.

[11] = In vivo conversion after oral dosing in minipigs
[12] = Conversion in fresh human blood; assay type: in vitro ADME; conditions: fresh blood 37° C., 1 μg/mL, 0-60 minutes
Description: as §2

human D1 receptor = target: T2, human D1 receptor (Homo sapiens, UniProt P21728); assay: Dopamine D1 receptor agonism, HTRF cAMP assay; assay type: cell-based; conditions: example 5 and table 2 (D1 and D2 assays)
T2 construct: host or cells: HEK-293
T2 sequence (P21728 whole entry): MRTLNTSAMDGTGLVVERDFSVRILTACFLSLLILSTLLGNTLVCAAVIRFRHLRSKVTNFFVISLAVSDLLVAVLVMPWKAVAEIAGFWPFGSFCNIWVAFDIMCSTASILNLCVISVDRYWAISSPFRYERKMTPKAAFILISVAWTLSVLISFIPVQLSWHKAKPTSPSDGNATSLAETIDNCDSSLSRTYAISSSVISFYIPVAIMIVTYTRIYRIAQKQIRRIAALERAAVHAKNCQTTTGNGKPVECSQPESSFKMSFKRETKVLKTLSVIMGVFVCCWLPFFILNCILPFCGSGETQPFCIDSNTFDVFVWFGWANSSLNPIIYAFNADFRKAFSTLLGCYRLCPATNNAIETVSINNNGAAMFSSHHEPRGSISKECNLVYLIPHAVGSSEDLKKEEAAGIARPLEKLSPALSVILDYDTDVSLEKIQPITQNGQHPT
Description: Dopamine D1 receptor agonism was measured using a HTRF cAMP from CisBio using the protocol developed by HD Biosciences (China). Briefly, the assay is a homogeneous time resolved-fluorescence resonance energy transfer (HTRF) assay that measures production of cAMP by cells in a competitive immunoassay between native cAMP produced by cells and cAMP-labeled with XL-665. A cryptate-labeled anti-cAMP antibody visualizes the tracer. The assay was performed in accordance with instructions from manufacturer.
Test compounds were added to wells of microplates (384 format). […] HTRF cAMP was measured by excitation of the donor with 337 nm laser (the “TRF light unit”) and subsequent (delay time 100 microseconds) measurement of cryptate and d2 emission at 615 nm and 665 nm over a time window of 200 microseconds with a 2000 microseconds time window between repeats/100 flashes). HTRF measurements were performed on an Envision microplate reader (PerkinElmer). The HTRF signal was calculated as the emission-ratio at 665 nm over 615 nm. The HTRF ratio readout for test compounds was normalized to 0% and 100% stimulation using control wells with DMSO-solvent or 30 μM dopamine. […]

[13] = (Id) 10 to 300 μg/kg p.o., apomorphine 3 mg/kg s.c., pramipexole 0.3 mg/kg s.c.
[14] = 1 μg/mL, 37° C., 0.25-60 minutes

## CCCc1cc2c(s1)CN[C@@H]1CCc3cc(OC(C)=O)c(OC(C)=O)cc3[C@@H]21 [adrogolide]
Parkinson's disease
  Antiparkinson efficacy: comparable to that of L-DOPA
[1]
  Oral bioavailability: ~4%

## CN1CCc2cccc3c2[C@H]1Cc1ccc(O)c(O)c1-3 [apomorphine]
Rat locomotor activity
  Relationship between plasma concentration and hyperactivity: correlation between plasma concentrations of apomorphine and hyperactive behaviour
Rat locomotor activity; [13]
  Locomotor activity: start of effect post-administration: immediate

## CCCN1CCC[C@@H]2Cc3c(ccc(O)c3O)C[C@H]21 [compound (I), (4aR,10aR)-1-Propyl-1,2,3,4,4a,5,10,10a-octahydro-benzo[g]quinoline-6,7-diol]
Human hepatocytes [2]
  Conjugation of compound (I) in human hepatocytes: conjugated in rat and human hepatocytes to sulfate and glucuronide derivatives
[3]
  Efficacy in animal models relevant for Parkinson's Disease: effective
Rat hepatocytes [4]
  Conjugation of compound (I) in rat hepatocytes: conjugated in rat and human hepatocytes to sulfate and glucuronide derivatives

## CCCN1CCC[C@@H]2CC3=C(CCCC3=O)C[C@H]21 [compound (Ia)]
Human 5-HT2B receptor [5]; 30 μM, percent of control response to 1 μM 5-HT
  5-HT2B agonist effect @ 30 μM: 58%
[3]
  Efficacy in animal models relevant for Parkinson's Disease: effective
[6]
  Plasma profile of compound (I) after oral dosing of the prodrug (in words): early and high peak concentrations of compound (I)

## CCCN1CCC[C@@H]2Cc3c(ccc4c3OCO4)C[C@H]21 [compound (Ib)]
Human 5-HT2B receptor [5]
  5-HT2B receptor agonism (in words): agonist of the 5-HT2B receptor
[3]
  Efficacy in animal models relevant for Parkinson's Disease: effective
[6]
  Plasma profile of compound (I) after oral dosing of the prodrug (in words): early and high peak concentrations of compound (I)
Rat hepatocytes [7]
  Conversion of (Ib) to compound (I) in rat hepatocytes: demonstrated
Human hepatocytes [8]
  Conversion of (Ib) to compound (I) in human hepatocytes: demonstrated

## CCCN1CCC[C@@H]2Cc3c(ccc(OC(=O)C(C)(C)C)c3OC(=O)C(C)(C)C)C[C@H]21 [compound (Ic)]
Human 5-HT2B receptor [5]; 10 μM, percent of control response to 1 μM 5-HT
  5-HT2B agonist effect @ 10 μM: −5% @ 10 μM
[6]
  Plasma profile of compound (I) after oral dosing of the prodrug (in words): extremely low

## CCCN1CCC[C@@H]2Cc3c(ccc(O)c3O[C@@H]3O[C@H](C(=O)O)[C@@H](O)[C@H](O)[C@H]3O)C[C@H]21 [compound (Id), (2S,3S,4S,5R,6S)-3,4,5-trihydroxy-6-(((4aR,10aR)-7-hydroxy-1-propyl-1,2,3,4,4a,5,10,10a-octahydrobenzo[g]quinolin-6-yl)oxy)tetrahydro-2H-pyran-2-carboxylic acid]
Human 5-HT2B receptor [5]
  5-HT2B receptor agonism (in words): not a 5-HT2B agonists
[9]
  Conversion of (Id) to compound (I) in rat blood: time dependent conversion
Human hepatocytes [2]; [14]
  Conversion of (Id) to compound (I) in human hepatocytes: time dependent conversion
Rat locomotor activity
  Relationship between plasma concentration and hyperactivity: correlate with the plasma concentrations of compound (I)
Rat locomotor activity; [13]
  Locomotor activity: start of effect post-administration: ~2 h
Rat locomotor activity; (Id) 10 to 300 μg/kg p.o., apomorphine 3 mg/kg s.c., recording until 415-minute time point
  Locomotor activity: end of effect post administration: lasting until the end of recording
Rat locomotor activity; versus vehicle, (Id) p.o., apomorphine 3 mg/kg s.c., pramipexole 0.3 mg/kg s.c.
  Total distance travelled (FIG. 3): significantly increased activity
[6]
  Plasma profile of compound (I) after oral dosing of the prodrug (in words): slower absorption rate avoiding rapid peak concentrations
Human 5-HT2B receptor [10]
  inhibition at 10 µM: -25%
[11]
  In vivo conversion of (Id) to compound (I): observed
[12]
  Conversion of (Id) to compound (I) in human blood: time dependent conversion
Rat hepatocytes [4]; [14]
  Conversion of (Id) to compound (I) in rat hepatocytes: time dependent conversion
Human D1 receptor
  In vitro dopaminergic activity (in words): no in vitro dopaminergic activity
